What is called Cmax is the highest concentration seen after dosing. Broadly, the Tmax is the time at which the peak concentration occurs. The term logP denotes a log measure of how a compound divides between an organic and an aqueous phase.

Where two headings read alike, the source gives them in different places.

The source of these data is patent publication EP2165709B1, “Pharmaceutical compositions comprising a lysine based compound and an HIV antiviral or antiretroviral agent” (Ambrilia Biopharma Inc., priority 2004, dated 2006).

Data set [1] can be described thus: Bioavailability: plasma concentration after oral administration to rats. The format is in vivo, male Sprague-Dawley rats. The note with it: rat; for Cmax / Tmax: male, Sprague-Dawley, plasma, vehicle Mix; for Cmax / Tmax / AUC / delivery of PL-100 and PL-337 compared to non-aqueous formulations of PL-100 and PL-337: 50 mg/Kg po; for delivery of PL-100 and PL-337 compared to non-aqueous formulations of PL-100 and PL-337: aqueous dosing; for administered compound detected in the blood samples: po, delivered as aqueous solutions, suggests rapid metabolism to parent drugs. As to the method: To assess the extent of in vivo cleavage of the phosphate group from the putative compounds, PL-100, PL-462 (based on PL-100), PL-337 and PL-515 (based on PL-337) compounds were administered po (50 mg/kg) to male Sprague-Dawley rats and their plasma concentration measured at different time intervals post-administration. All test articles (PL-100, PL-462, PL-337 and PL-515) were prepared in different vehicle at the final concentration of 25 mg/mL. The vehicle composition is as follows: (1) 20% ethanol; 50% propylene glycol; 0.05% w/v Tween 20 and water (Mix); (2) PBS buffer (PBS). Test articles were administered to male Sprague-Dawley rats at a single oral dose of 50 mg/kg. Each article was tested in three rats. Blood samples (0.2-0.3 mL) were collected at the post-dose time of 10, 20, 40, 60,120, 180 and 360 minutes. The harvested blood was centrifuged to isolate plasma. The resulting plasma was separated and stored at -70°C. Plasma samples together with standards and quality control samples were treated to precipitate proteins, then analyzed by HPLC-MS, for the presence of PL-462, PL-100, PL-515 and PL-337.

Data set [2] is described as follows: Partition coefficient (LogP), octanol / phosphate buffer pH 7.4. Type of data set: physicochemical. The note with it: octanol and phosphate buffer pH 7.4 (0.04 M KHPO4), LC-MS detection. The text has this: The concentration of the compounds in the phases was detected by LC-MS.
Setting [3] is: vehicle Mix (20% ethanol; 50% propylene glycol; 0.05% w/v Tween 20 and water).
Setting [4] is: vehicle PBS, parent drug (PL-100 or PL-337) detected in plasma.

`COC(=O)N[C@H](C(=O)NCCCC[C@@H](CO)N(CC(C)C)S(=O)(=O)c1ccc(N)cc1)C(c1ccccc1)c1ccccc1` [PL-100, (1S,5S)-(1-{5-[(4-amino-benzenesulfonyl)-isobutyl-amino]-6-hydroxy-hexylcarbamoyl}-2,2-diphenyl-ethyl)-carbamic acid methyl ester]: in data set [1], the peak level (Cmax) was 498 ± 203 nM and the time to peak (Tmax) was 40 min. The same compound displayed an AUC in data set [1] (setting [3]) of 0.675 ± 0.171 µg/hr*ml. For the same compound, the logP in data set [2] (read-out: LogP) came out at 3.6.

For the compound `COC(=O)N[C@H](C(=O)NCCCC[C@@H](CO)N(CC(C)C)S(=O)(=O)c1ccc(N)c(F)c1)C(c1ccccc1)c1ccccc1` [PL-337, (1-{5-[(4-amino-3-fluoro-benzenesulfonyl)-isobutyl-amino]-6-hydroxy-hexylcarbamoyl}-2,2-diphenyl-ethyl)-carbamic acid methyl ester], in data set [1], the highest level (Cmax) was 681 ± 131 nM and the Tmax was 60 min. This compound gave an AUC in data set [1] (setting [3]) of 1.180 ± 0.196 µg/hr*ml.

Consider `COC(=O)N[C@H](C(=O)NCCCC[C@@H](COP(=O)(O)O)N(CC(C)C)S(=O)(=O)c1ccc(N)cc1)C(c1ccccc1)c1ccccc1` [PL-461, (1S,5S)-(1-{5-[(4-amino-benzenesulfonyl)-isobutyl-amino]-6-phosphonooxy-hexylcarbamoyl}-2,2-diphenyl-ethyl)-carbamic acid methyl ester], for which, in data set [2] (read-out: LogP), the logP is -1.2.

Consider `COC(=O)N[C@H](C(=O)NCCCC[C@@H](COP(=O)(O)O)N(CC(C)C)S(=O)(=O)c1ccc(N)cc1)C(c1ccccc1)c1ccccc1.[Na]` [PL-462, (1S,5S)-(1-{5-[(4-amino-benzenesulfonyl)-isobutyl-amino]-6-phosphonooxy-hexylcarbamoyl}-2,2-diphenyl-ethyl)-carbamic acid methyl ester sodium salt], for which, in data set [1] (setting [4]), the AUC was 0.816 ± 0.295 (PL-100, detected) µg/hr*ml. In data set [1], the “delivery of PL-100 and PL-337 compared to non-aqueous formulations of PL-100 and PL-337” value was “equivalent to slightly superior”; the “administered compound detected in the blood samples” value is on record as “None”. The compound also returned a log partition coefficient (logP) in data set [2] of -1.2.

On to `COC(=O)N[C@H](C(=O)NCCCC[C@@H](COP(=O)(O)O)N(CC(C)C)S(=O)(=O)c1ccc(N)c(F)c1)C(c1ccccc1)c1ccccc1` [PL-515, (1S,5S)-(1-{5-[(4-amino-3-fluoro-benzenesulfonyl)-isobutyl-amino]-6-phosphonooxy-hexylcarbamoyl}-2,2-diphenyl-ethyl)-carbamic acid methyl ester], for which the AUC in data set [1] (setting [4]) is listed as 1.075 ± 0.625 (PL-337, detected) µg/hr*ml. In addition, in data set [1], the “delivery of PL-100 and PL-337 compared to non-aqueous formulations of PL-100 and PL-337” value is reported as “equivalent to slightly superior”; the “administered compound detected in the blood samples” value is recorded as “None”. For the same compound, the lipophilicity (logP) in data set [2] (read-out: LogP) was -0.75.
